Results reported in PubChem BioAssay (NCI).
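Step 1: Grow cells in 96-well plates. Step 2: Expose to compound for 48 hours at 5 concentrations. Step 3: Interpolate endpoints linearly; if unreached, use highest concentration. GI50 = concentration required for 50% inhibition of growth. Definition used: TGI = concentration required for complete inhibition of growth.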

Assays:
Experiment in all cases: NCI-60 cell line screen, 48 h; in the data active = GI50 below about 0.43 µM; inactive = the rest
[1] = tested on: HOP-18 NSCLC
[2] = tested on: HL-60(TB) leukemia
[3] = tested on: COLO 205 colon
[4] = tested on: M19-MEL melanoma
[5] = tested on: A549 NSCLC
[6] = tested on: HOP-62 NSCLC
[7] = tested on: SNB-19 CNS
[8] = tested on: HCT-15 colon
[9] = tested on: NCI-H522 lung
[10] = tested on: SN12C renal
[11] = tested on: SR leukemia
[12] = tested on: ACHN renal
[13] = tested on: DMS 114 small cell lung
[14] = tested on: SNB-75 CNS
[15] = tested on: CAKI-1 renal
[16] = tested on: NCI-H460 lung
[17] = tested on: SK-MEL-28 melanoma
[18] = tested on: OVCAR-3 ovarian
[19] = tested on: RPMI-8226 leukemia
[20] = tested on: HT29 colon
[21] = tested on: SW-620 colon
[22] = tested on: U251 CNS
[23] = tested on: HOP-92 NSCLC
[24] = tested on: SF-539 CNS
[25] = tested on: UACC-62 melanoma
[26] = tested on: SK-OV-3 ovarian
[27] = tested on: M14 melanoma
[28] = tested on: DMS 273 small cell lung
[29] = tested on: UO-31 renal
[30] = tested on: SK-MEL-2 melanoma
[31] = tested on: SF-295 CNS
[32] = tested on: LOX IMVI melanoma
[33] = tested on: NCI-H226 lung
[34] = tested on: MALME-3M melanoma
[35] = tested on: SF-268 CNS
[36] = tested on: UACC-257 melanoma
[37] = tested on: 786-0 renal
[38] = tested on: HCC-2998 colon
[39] = tested on: EKVX NSCLC
[40] = tested on: IGROV1 ovarian
[41] = tested on: MOLT-4 leukemia
[42] = tested on: K-562 leukemia
[43] = tested on: SK-MEL-5 melanoma
[44] = tested on: NCI-H23 lung
[45] = tested on: HCT-116 colon
[46] = tested on: A498 renal
[47] = tested on: LXFL 529 NSCLC
[48] = tested on: SNB-78 CNS
[49] = tested on: OVCAR-8 ovarian
[50] = tested on: DLD-1 colon
[51] = tested on: RXF 393 renal
[52] = tested on: TK-10 renal
[53] = tested on: KM20L2 colon
[54] = tested on: CCRF-CEM leukemia
[55] = tested on: OVCAR-4 ovarian
[56] = tested on: KM12 colon
[57] = tested on: OVCAR-5 ovarian
[58] = tested on: XF 498 CNS

NS(=O)(=O)c1ccc(NC2=CC(=O)C(=O)c3ccccc32)cc1
> 100 µM: TGI [1] | TGI [2] | TGI [3] | TGI [4] | TGI [5] | TGI [6] | TGI [7] | TGI [8] | TGI [9] | TGI [10] | TGI [11] | TGI [12] | TGI [13] | TGI [14] | TGI [15] | TGI [16] | TGI [17] | TGI [18] | TGI [19] | TGI [20] | TGI [21] | TGI [22] | TGI [23] | TGI [24] | TGI [25] | TGI [26] | TGI [27] | TGI [28] | TGI [29] | TGI [30] | TGI [31] | TGI [32] | TGI [33] | TGI [34] | TGI [35] | TGI [36] | TGI [37] | TGI [38] | TGI [39] | TGI [40] | TGI [41] | TGI [42] | TGI [43] | TGI [44] | TGI [45] | TGI [46] | TGI [47] | TGI [48] | TGI [49] | TGI [50] | TGI [51] | TGI [52] | TGI [53] | TGI [54] | TGI [55] | TGI [56] | TGI [57]

NC(=O)CCC(N=C(N)c1csc(C2OC(CO)C(O)C2O)n1)C(=O)O (centres undefined)
> 100 µM: TGI [2] | TGI [3] | TGI [5] | TGI [8] | TGI [9] | TGI [10] | TGI [12] | TGI [13] | TGI [14] | TGI [15] | TGI [17] | TGI [19] | TGI [20] | TGI [21] | TGI [22] | TGI [24] | TGI [25] | TGI [26] | TGI [27] | TGI [28] | TGI [30] | TGI [31] | TGI [32] | TGI [34] | TGI [35] | TGI [36] | TGI [38] | TGI [39] | TGI [58] | TGI [40] | TGI [41] | TGI [42] | TGI [43] | TGI [44] | TGI [46] | TGI [47] | TGI [48] | TGI [49] | TGI [50] | TGI [51] | TGI [52] | TGI [53] | TGI [54] | TGI [55] | TGI [56] | TGI [57]

OCC(O)C(O)C(O)c1nn(-c2ccc(Cl)cc2)c2nc3cc(Cl)c(Cl)cc3nc12 (centres undefined)
58.6 µM: TGI [26]
> 100 µM: TGI [1] | TGI [2] | TGI [3] | TGI [4] | TGI [5] | TGI [7] | TGI [9] | TGI [10] | TGI [11] | TGI [12] | TGI [13] | TGI [15] | TGI [16] | TGI [17] | TGI [18] | TGI [19] | TGI [20] | TGI [21] | TGI [22] | TGI [24] | TGI [25] | TGI [27] | TGI [28] | TGI [29] | TGI [30] | TGI [31] | TGI [32] | TGI [35] | TGI [36] | TGI [37] | TGI [38] | TGI [40] | TGI [41] | TGI [42] | TGI [45] | TGI [47] | TGI [49] | TGI [50] | TGI [52] | TGI [53] | TGI [54] | TGI [55] | TGI [57]
72.4 µM: TGI [51]
58.4 µM: TGI [33]
67.9 µM: TGI [39]
76.9 µM: TGI [48]
27.4 µM: TGI [58]
11.1 µM: TGI [14]
71 µM: TGI [6] | TGI [34]
85.1 µM: TGI [44]

O=C(N/N=C/c1cc(Cl)cc(Cl)c1[O-])c1ccccc1O.O=C(N/N=C/c1cc(Cl)cc(Cl)c1[O-])c1ccccc1O.[Zn+2]
13.1 µM: TGI [5]
5.75 µM: TGI [24]
20.9 µM: TGI [21]
10.6 µM: TGI [29]
18.5 µM: TGI [52]
13.7 µM: TGI [20]
1.84 µM: TGI [25]
0.715 µM: TGI [2]
11.8 µM: TGI [26] | TGI [36]
14.6 µM: TGI [32] | TGI [57]
15 µM: TGI [7]
16.4 µM: TGI [14]
6.82 µM: TGI [40]
1.55 µM: TGI [11]
11.2 µM: TGI [44]
12.9 µM: TGI [12]
2.94 µM: TGI [43]
2.4 µM: TGI [55]
13.2 µM: TGI [38]
18 µM: TGI [41]
1.85 µM: TGI [18]
3.38 µM: TGI [49]
4.98 µM: TGI [23]
6.88 µM: TGI [27]
9.88 µM: TGI [39]
17.7 µM: TGI [35]
11.5 µM: TGI [30]
17.9 µM: TGI [56]
inactive: GI50 [5] 527 nM | GI50 [24] 852 nM | GI50 [30] 591 nM | GI50 [34] 1370 nM | GI50 [39] 680 nM | GI50 [44] 560 nM | GI50 [53] 2050 nM | GI50 [56] 956 nM
15.6 µM: TGI [8]
14.5 µM: TGI [45]
8.45 µM: TGI [15]
14.8 µM: TGI [17]
8.56 µM: TGI [34]
active: GI50 [23] 363 nM | GI50 [41] 11.5 nM | GI50 [45] 337 nM
7.61 µM: TGI [33]
5.21 µM: TGI [31]
0.764 µM: TGI [9]
5.93 µM: TGI [22]
33.4 µM: TGI [42]
5.17 µM: TGI [53]
11.6 µM: TGI [51]
